Laboratory results as given in patent US12281363B2, “Methods for detecting antiviral-drug resistant virus” (Secretary of State for Health and Social Care, priority 2018, dated 2025).
Like-named read-outs stand apart in the source and are kept apart here.

Test system: HSV-1
Experiment: Plaque reduction assay, HSV-1 clinical isolates on Vero cells
Type: cell-based
Details: Human alphaherpesvirus 1, Vero
Text: Viral isolates were used to infect a sub-confluent monolayer of Vero cells at a concentration of 75 or 50 plaque forming units (PFU) per well for HSV-1 and HSV-2, respectively. […] CMC medium typically used to create a semisolid interface and prevents indiscrimate viral spreading. Other materials (e.g. agar) may also be used to create this interface.
Cells were fixed with 10% formalin and stained with crystal violet before enumeration of the plaques (microscopic observation or use of fluorescent antibodies for detection is also suitable). The data obtained from these experiments were then expressed as percent inhibition of viral infectivity relative to the no drug control.
Definitions of phenotypic drug susceptibility classification as sensitive or resistant were as follows: ACV, <3 μM or >40 μM; PCV, <10 μM or >40 μM; CDV, <24 μM or >30 μM; FOS, <250 μM or >400 μM; and ACV, <6.5 μM or >40 μM; PCV, <38 μM or >40 μM; FOS, <250 μM or >400 μM for HSV-1 and HSV-2, respectively. Any IC50 values falling in between these sensitive and resistant cut-offs were reported as intermediate resistance.
The phenotype (i.e. reactivity to a drug) of the virus was characterised by the plaque reduction assay as described above.

SMILES: Nc1ccn(C[C@@H](CO)OCP(=O)(O)O)c(=O)n1 [Cidofovir, cidofovir]
- IC50 (isolate HPG032, HSV-1 TK 183* (437_438insA), read-out: Drug susceptibility Cidofovir (CDV)): < 24 µM
- IC50 (isolate HPG033, HSV-1 TK I358L (1072A>C), also TK T287M, read-out: Drug susceptibility (IC50 value)): 15 µM
- IC50 (isolate HPG033, HSV-1 TK I358L (1072A>C), also TK T287M, read-out: Drug susceptibility Cidofovir (CDV)): < 24 µM
- IC50 (isolate HPG033, HSV-1 pol N1046T (3137A>C), also TK T287M, pol A1169T, read-out: Drug susceptibility (IC50 value)): 15 µM
- IC50 (isolate HPG033, HSV-1 pol N1046T (3137A>C), also TK T287M, pol A1169T, read-out: Drug susceptibility Cidofovir (CDV)): < 24 µM
- IC50 (isolate HPG035, HSV-1 pol S239L (716C>T), also pol S724N, read-out: Drug susceptibility (IC50 value)): 39.6 µM
- IC50 (isolate HPG035, HSV-1 pol S239L (716C>T), also pol S724N, read-out: Drug susceptibility Cidofovir (CDV)): > 30 µM
- IC50 (isolate HPG037, HSV-1 TK L69M (205>A), also TK Y239H, read-out: Drug susceptibility Cidofovir (CDV)): < 24 µM
- IC50 (isolate HPG037, HSV-1 TK R256W (766C>T), read-out: Drug susceptibility (IC50 value)): 4.39 µM
- IC50 (isolate HPG037, HSV-1 TK R256W (766C>T), read-out: Drug susceptibility Cidofovir (CDV)): < 24 µM
- IC50 (isolate HPG037, HSV-1 TK Y239H (715T>C), read-out: Drug susceptibility (IC50 value)): 4.39 µM
- IC50 (isolate HPG037, HSV-1 TK Y239H (715T>C), read-out: Drug susceptibility Cidofovir (CDV)): < 24 µM
- IC50 (isolate HPG039, HSV-1 TK 85* or H58fs (169delC, 170delC, 171delC, or 172delC), read-out: Drug susceptibility (IC50 value)): 2.97 µM
- IC50 (isolate HPG039, HSV-1 TK 85* or H58fs (169delC, 170delC, 171delC, or 172delC), read-out: Drug susceptibility Cidofovir (CDV)): < 24 µM
- IC50 (isolate HPG040, HSV-1 pol S911N (2732G>A), also TK deletion (C) nt 896-900, pol A1169T, read-out: Drug susceptibility (IC50 value)): 11.3 µM
- IC50 (isolate HPG040, HSV-1 pol S911N (2732G>A), also TK deletion (C) nt 896-900, pol A1169T, read-out: Drug susceptibility Cidofovir (CDV)): < 24 µM
- IC50 (isolate HPG041, HSV-1 pol S911N (2732G>A), also pol A1169T, read-out: Drug susceptibility (IC50 value)): 18 µM
- IC50 (isolate HPG041, HSV-1 pol S911N (2732G>A), also pol A1169T, read-out: Drug susceptibility Cidofovir (CDV)): < 24 µM
- IC50 (isolate HPG042, HSV-1 pol A972V (2915C>T), also TK deletion (C) nt 881-885, pol A1169T, read-out: Drug susceptibility (IC50 value)): < 1.56 µM
- IC50 (isolate HPG042, HSV-1 pol A972V (2915C>T), also TK deletion (C) nt 881-885, pol A1169T, read-out: Drug susceptibility Cidofovir (CDV)): < 24 µM
- IC50 (isolate HPG042, HSV-1 pol G22R (64G>A), also TK deletion (C) nt 881-885, pol A1169T, read-out: Drug susceptibility (IC50 value)): < 1.56 µM
- IC50 (isolate HPG042, HSV-1 pol G22R (64G>A), also TK deletion (C) nt 881-885, pol A1169T, read-out: Drug susceptibility Cidofovir (CDV)): < 24 µM
- IC50 (isolate HPG043, HSV-1 TK 183* (437_438insA), read-out: Drug susceptibility (IC50 value)): 1.65 µM
- IC50 (isolate HPG043, HSV-1 TK 183* (437_438insA), read-out: Drug susceptibility Cidofovir (CDV)): < 24 µM
- IC50 (isolate HPG045, HSV-1 TK L49R (146T>G), read-out: Drug susceptibility (IC50 value)): < 1.56 µM
- IC50 (isolate HPG045, HSV-1 TK L49R (146T>G), read-out: Drug susceptibility Cidofovir (CDV)): < 24 µM
- IC50 (isolate HPG045, HSV-1 pol L419I (1255C>A), also TK L49R, pol A1169T, read-out: Drug susceptibility (IC50 value)): < 1.56 µM
- IC50 (isolate HPG045, HSV-1 pol L419I (1255C>A), also TK L49R, pol A1169T, read-out: Drug susceptibility Cidofovir (CDV)): < 24 µM
- IC50 (isolate HPG046, HSV-1 TK I166N (497T>A), read-out: Drug susceptibility (IC50 value)): 2.1 µM
- IC50 (isolate HPG046, HSV-1 TK I166N (497T>A), read-out: Drug susceptibility Cidofovir (CDV)): < 24 µM
- IC50 (isolate HPG047, HSV-1 pol E680 (2039A>C), also TK deletion (C) nt 548-553, pol A1169T, read-out: Drug susceptibility Cidofovir (CDV)): < 24 µM
- IC50 (isolate HPG051, HSV-1 pol D83A (248A>C), also TK R176stop, read-out: Drug susceptibility (IC50 value)): 4.94 µM
- IC50 (isolate HPG051, HSV-1 pol D83A (248A>C), also TK R176stop, read-out: Drug susceptibility Cidofovir (CDV)): < 24 µM
- IC50 (isolate HPG052, HSV-1 TK Q34* (100C>T), read-out: Drug susceptibility (IC50 value)): 4.77 µM
- IC50 (isolate HPG052, HSV-1 TK Q34* (100C>T), read-out: Drug susceptibility Cidofovir (CDV)): < 24 µM
- IC50 (isolate HPG053, HSV-1 pol L802R + A834S (2405T>G, 2500G>T), also TK R176W, read-out: Drug susceptibility Cidofovir (CDV)): < 24 µM
- IC50 (isolate HPG053, HSV-1 pol S911N (2732G>A), also TK R176W, pol A1169T, read-out: Drug susceptibility (IC50 value)): 7.72 µM
- IC50 (isolate HPG053, HSV-1 pol S911N (2732G>A), also TK R176W, pol A1169T, read-out: Drug susceptibility Cidofovir (CDV)): < 24 µM
- IC50 (isolate HPG054, HSV-1 pol E992K (2974G>A), also TK insert (G) nt 430-436, pol A1169T, read-out: Drug susceptibility (IC50 value)): 3.85 µM
- IC50 (isolate HPG054, HSV-1 pol E992K (2974G>A), also TK insert (G) nt 430-436, pol A1169T, read-out: Drug susceptibility Cidofovir (CDV)): < 24 µM
- IC50 (isolate HPG055, HSV-1 TK V204G (611T>G), also pol A1169AT, read-out: Drug susceptibility (IC50 value)): < 1.56 µM
- IC50 (isolate HPG055, HSV-1 TK V204G (611T>G), also pol A1169AT, read-out: Drug susceptibility Cidofovir (CDV)): < 24 µM
- IC50 (read-out: Drug susceptibility (IC50 value), isolate HPG005, HSV-1 TK A192T (574G>A)): 2.21 µM
- IC50 (read-out: Drug susceptibility (IC50 value), isolate HPG006, HSV-1 pol G121S (361G>A), also a TK resistance mutation (footnote a)): 6.14 µM
- IC50 (read-out: Drug susceptibility (IC50 value), isolate HPG012, HSV-1 pol G985E (2954G>A), also TK A93V): 2.84 µM
- IC50 (read-out: Drug susceptibility (IC50 value), isolate HPG016, HSV-1 pol A1169T (3505G>A)): 16.5 µM
- IC50 (read-out: Drug susceptibility (IC50 value), isolate HPG037, HSV-1 TK L69M (205>A), also TK Y239H): 4.39 µM
- IC50 (read-out: Drug susceptibility (IC50 value), isolate HPG042, HSV-1 TK frameshift (881delC to 885delC)): < 1.56 µM
- IC50 (read-out: Drug susceptibility (IC50 value), isolate HPG047, HSV-1 pol E680 (2039A>C), also TK deletion (C) nt 548-553, pol A1169T): 2.88 µM
- IC50 (read-out: Drug susceptibility Cidofovir (CDV), isolate HPG005, HSV-1 TK A192T (574G>A)): < 24 µM
- IC50 (read-out: Drug susceptibility Cidofovir (CDV), isolate HPG006, HSV-1 pol G121S (361G>A), also a TK resistance mutation (footnote a)): < 24 µM
- IC50 (read-out: Drug susceptibility Cidofovir (CDV), isolate HPG012, HSV-1 pol G985E (2954G>A), also TK A93V): < 24 µM
- IC50 (read-out: Drug susceptibility Cidofovir (CDV), isolate HPG016, HSV-1 pol A1169T (3505G>A)): < 24 µM
- IC50 (read-out: Drug susceptibility Cidofovir (CDV), isolate HPG042, HSV-1 TK frameshift (881delC to 885delC)): < 24 µM
